A short description of series [1]: Turbidometric solubility determination. Type of series: physicochemical. The note with it: PBS with 1% DMSO, aqueous buffer, kinetic from dmso stock, room temperature, OD620, read-out: Max Solub. As to the method: Solubility determinations shown in Table 3 were obtained turbidometrically and in a manner similar to the one described in Perez et al., J. Biomol. Screen, 2015, 20(2), 254-64. The method requires small volumes of 100× stock concentration drug solution to be prepared in DMSO 0, 0.23, 0.47, 0.94, 1.88, 3.75, 7.5, 15.0, 30.0 and […]. The stock drug concentrations are then diluted 1:100 added into triplicate wells containing PBS in a clear bottom 384 well microtiter to achieve final testing concentrations of 0, 2.3, 4.7, 9.4, 18.8, 37.5, 75, 150, 300, 600 μM in 1% DMSO. The plate is allowed to equilibrate with constant shaking for 2 hours at room temperature. The plate is then placed in a SpectroMax V plate reader to measure absorbance at 620 nm. Increase in absorbance is evident in test wells which precipitation of the compound is evident. The plot of OD620 vs. drug concentration is used to calculate the maximum solubility limit as determined by a statistically significant increase in absorbance above the background levels.

The test system of series [2] is 20-HETE formation (CYP4) in RLM. Nature of the series: Inhibition of 20-HETE formation at 250 or 500 nM in RLM microsomal incubations. The class given is biochemical, rat. The note with it: 500 nM compound; RLM 300 μg/ml. As to the method: (§1) To screen the inhibitory effects against 20-HETE formation, compounds were screened in HLM, RLM, RKM and rCYP4F2 microsomal incubations. Compounds dissolved in either 100% methanol or 100% DMSO to yield 10 mM stock solution. Microsomal incubations containing HLM, RLM, RKM (300 μg/ml) or rCYP4F2 (25 pmol/mL), AA (100 μM), NADPH (1 mM) treated with test compounds at various concentrations (500 nM or 250 nM) in a 1 ml total volume in incubation buffer (0.12 M potassium phosphate buffer containing 5 mM magnesium chloride). Reaction was started by adding NADPH to the incubates and was carried out at 37° C. in a shaking water bath for 20 min. Reaction was stopped by placing tubes on ice, followed by adding 125 μl 20-HETE-d6 as internal standard to each sample. Microsomal incubations were extracted with 3 ml ethyl ether twice, dried down under nitrogen gas and reconstituted in 125 μl 80:20 methanol:deionized H2O for analysis. 20-HETE formation was quantified using a validated UPLC-MS/MS assay and normalized by vehicle group. Each compound had three replications (n=3). Vehicle group was used as control to calculate percentage of 20-HETE formation rate. HET0016 (250 nM) was used as positive control. Incubates without NADPH group served as the negative control. An Acquity ultra performance LC autosampler (Waters, Milford, MA) was used to isolate 20-HETE on an UPLC BEH C18, 1.7 μm (2.1×100 mm) reversed-phase column (Waters, Milford, MA) protected by a guard column (2.1×5 mm; Waters, Milford, MA) of the same packing material. Column temperature was maintained at 55° C. Mobile phases consisted of 0.005% acetic acid, 5% acetonitrile in deionized water (A) and 0.005% acetic acid in acetonitrile (B). The flow rate for mobile phases is 0.5 ml/min. The initial mixture of mobile phase was 65:35 of A and B. Mobile phase B increased at 0.4 minutes after injection from 35% to 70% in a linear gradient over 4 minutes, and again increased to 95% over 0.5 minutes where it remained for 0.3 minutes. This was followed by a linear return to initial conditions over 0.1 minutes with a 1.5 minute pre-equilibration period prior to the next sample run. Total run time was 6.4 minutes for each injection. Injection volumes were 7.5 μl. Mass spectrometric analysis was carried out using a TSQ Quantum Ultra (Thermo Fisher Scientific, San Jose, CA) triple quadrupole mass spectrometer using heated electrospray ionization (HESI). Mass spectrometer was operated in negative selective reaction monitoring (SRM) mode with unit resolutions at both Q1 and Q3 set at 0.70 Da full width at half maximum. Scan time was set at 0.01 s and collision gas pressure was 1.3 mTorr. Quantitation of 20-HETE by SRM was performed by monitoring the m/z. Analytical data was acquired and analyzed using Xcaliber 3.0 data system (ThermoFinnigan, San Jose, CA).

The target in series [3] is T1, rCYP4F2 (Homo sapiens, UniProt P78329).
T1 sequence (P78329 5-520): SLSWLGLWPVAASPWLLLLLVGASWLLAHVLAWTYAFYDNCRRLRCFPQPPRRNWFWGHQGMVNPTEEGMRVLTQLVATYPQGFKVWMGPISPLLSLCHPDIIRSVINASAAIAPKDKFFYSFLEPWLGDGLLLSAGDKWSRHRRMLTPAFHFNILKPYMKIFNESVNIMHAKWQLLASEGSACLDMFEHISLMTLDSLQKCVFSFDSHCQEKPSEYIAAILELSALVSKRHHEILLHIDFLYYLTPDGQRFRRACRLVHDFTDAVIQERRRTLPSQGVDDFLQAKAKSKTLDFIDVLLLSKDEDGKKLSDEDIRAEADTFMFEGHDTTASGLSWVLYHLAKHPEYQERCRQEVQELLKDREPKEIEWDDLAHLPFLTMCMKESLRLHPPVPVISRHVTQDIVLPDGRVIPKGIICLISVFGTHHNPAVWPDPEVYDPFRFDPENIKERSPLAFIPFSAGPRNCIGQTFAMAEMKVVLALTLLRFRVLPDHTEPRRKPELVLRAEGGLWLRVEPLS
Nature of the series: Inhibition of 20-HETE formation at 250 or 500 nM in rCYP4F2 incubations. The class given is biochemical. The note with it: 500 nM compound, rCYP4F2 25 pmol/mL; for inhibition at 0.5 µM: read-out: rCYP4F2 % inh. @ 500 nM. The protocol: as §1

Series [4] relates to 20-HETE formation (CYP4) in HLM. The experiment in a line: Inhibition of 20-HETE formation at 250 or 500 nM in HLM microsomal incubations. The class given is biochemical, human. The note with it: 500 nM compound; HLM 300 μg/ml, AA 100 μM, 20 min. The protocol:
as §1

Each structure is given as a SMILES string. Converted amounts (≈) assume the structure as drawn.

For `COc1ccc(CC2CCN(c3cn[nH]c3)CC2)cc1` [Compound 127, 4-[(4-Methoxyphenyl)methyl]-1-(1H-pyrazol-4-yl)piperidine], the solubility at 2 h in series [1] was determined as 151 µM (≈ 41 µg/mL).
`CS(=O)(=O)Cc1ccc(C2CCN(c3cn[nH]c3)CC2)cc1` [Compound 89, 4-(4-((methylsulfonyl)methyl)phenyl)-1-(1H-pyrazol-4-yl)piperidine]: in series [2], the “RLM % inh. @ 500 nM” value was 0.00%. For the same compound, the inhibition at 0.5 µM in series [3] amounted to 72.9%. In addition, the “HLM % inh. @ 500 nM” value in series [4] was 34.8%. For the same compound, the solubility at 2 h in series [1] was determined as 324 µM (≈ 104 µg/mL).
On to `Cl.Clc1ccc(CC2CCN(c3cn[nH]c3)CC2)cc1` [Compound 115, 4-(4-Chlorobenzyl)-1-(1H-pyrazol-4-yl)piperidine hydrochloride], for which the “RLM % inh. @ 500 nM” value in series [2] amounted to 74.30%. Moreover, in series [3], the “rCYP4F2 % inh. @ 500 nM” value is 84.20%. In series [4], the “HLM % inh. @ 500 nM” value stood at 85.50%. Besides, the solubility at 2 h in series [1] was 74 µM.
Turning to `O=C1CCCN1Cc1ccc(C2CCN(c3ccn[nH]3)CC2)cc1F` [Compound 110, 1-(4-(1-(1H-Pyrazol-5-yl)piperidin-4-yl)-2-fluorobenzyl)pyrrolidin-2-one], the “RLM % inh. @ 500 nM” value in series [2] was 63.60%. Moreover, in series [3], the inhibition at 0.5 µM turned out to be 84.1%. For the same compound, in series [4], the “HLM % inh. @ 500 nM” value worked out at 80.4%. Also, the solubility at 2 h in series [1] is 421 µM (≈ 144 µg/mL).
For `O=C1COCCN1c1ccc(C2CCN(c3cn[nH]c3)CC2)cc1` [Compound 122, 4-(4-(1-(1H-Pyrazol-4-yl)piperidin-4-yl)phenyl)morpholin-3-one], the solubility at 2 h in series [1] is 247 µM (≈ 80.7 µg/mL).
Take `Cl.O=C1CCCN1c1ccc(C2CCN(c3cn[nH]c3)CC2)cc1` [Compound 119, 1-(4-(1-(1H-Pyrazol-4-yl)piperidin-4-yl)phenyl)pyrrolidin-2-one hydrochloride]: the solubility at 2 h in series [1] was 63 µM.
On the same count and under the same terms, in the case of `Fc1cc(C2CCN(c3cn[nH]c3)CC2)ccc1N1CCOCC1` [Compound 123, 4-(4-(1-(1H-Pyrazol-4-yl)piperidin-4-yl)-2-fluorophenyl)morpholine] it was 85.5 µM (≈ 28.2 µg/mL).
For `c1ccc(SC2CCN(c3ccn[nH]3)CC2)cc1` [Compound 39, 4-(Phenylthio)-1-(1H-pyrazol-5-yl)piperidine], the “RLM % inh. @ 500 nM” value in series [2] came out at 0.00%. Moreover, the inhibition at 0.5 µM in series [3] came out at 22.7%. In addition, the “HLM % inh. @ 500 nM” value in series [4] was determined as 6.00%.
Take `FC(F)(F)c1ccnc(C2CCN(c3ccn[nH]3)CC2)c1` [Compound 87, 2-(1-(1H-Pyrazol-5-yl)piperidin-4-yl)-4-(trifluoromethyl)pyridine]: the “RLM % inh. @ 500 nM” value in series [2] stood at 2.70%. In addition, the inhibition at 0.5 µM in series [3] came out at 7.4%. In addition, the “HLM % inh. @ 500 nM” value in series [4] was 15.6%.
On to `Fc1cc(N2CCOCC2)ccc1C1CCN(c2cn[nH]c2)CC1` [Compound 124, 4-(4-(1-(1H-Pyrazol-4-yl)piperidin-4-yl)-3-fluorophenyl)morpholine], for which, in series [1], the solubility at 2 h is 26.6 µM (≈ 8.79 µg/mL).
Take `COc1cc(CC2CCN(c3ccn[nH]3)CC2)ccn1` [Compound 99, 4-((1-(1H-Pyrazol-5-yl)piperidin-4-yl)methyl)-2-methoxypyridine]: the “RLM % inh. @ 500 nM” value in series [2] is 0.00%. The inhibition at 0.5 µM in series [3] amounted to 0%. For the same compound, the “HLM % inh. @ 500 nM” value in series [4] is 17.70%.
With `Cc1cc(N2CCC(c3ccccc3)CC2)[nH]n1` [Compound 38, 1-(5-Methyl-1H-pyrazol-5-yl)-4-phenylpiperidine], the “RLM % inh. @ 500 nM” value in series [2] is reported as 0.00%. In addition, the inhibition at 0.5 µM in series [3] stood at 22.3%. Moreover, the “HLM % inh. @ 500 nM” value in series [4] came out at 0.00%.
On to `COC(=O)c1cccc(C2CCN(c3cn[nH]c3)CC2)c1` [Compound 57, Methyl 3-(1-(1H-pyrazol-4-yl)piperidin-4-yl)benzoate], for which the “RLM % inh. @ 500 nM” value in series [2] came to 43.10%. For the same compound, the inhibition at 0.5 µM in series [3] came to 41.2%. Besides, in series [4], the “HLM % inh. @ 500 nM” value was found to be 0.00%.
The corresponding values for `Cc1n[nH]cc1N1CCC(c2ccccc2)CC1` [Compound 37, 1-(3-Methyl-1H-pyrazol-4-yl)-4-phenylpiperidine] are 0.00%, 31.9% and 0.00%.
Consider `COc1ccccc1C1CCN(c2cn[nH]c2)CC1` [Compound 22, 4-(2-Methoxyphenyl)-1-(1H-pyrazol-4-yl)piperidine], for which, in series [2], the “RLM % inh. @ 500 nM” value is reported as 0.00%. Further, the inhibition at 0.5 µM in series [3] amounted to 0%. Moreover, the “HLM % inh. @ 500 nM” value in series [4] worked out at 0.00%.
Take `Clc1cccc(CC2CCN(c3ccn[nH]3)CC2)c1` [Compound 91, 4-(3-Chlorobenzyl)-1-(1H-pyrazol-5-yl)piperidine]: the “RLM % inh. @ 500 nM” value in series [2] stood at 0.00%. Further, the inhibition at 0.5 µM in series [3] was 39.1%. Also, the “HLM % inh. @ 500 nM” value in series [4] is 40.4%.
As for `C[C@H](c1ccc(C2CCN(c3cn[nH]c3)CC2)cc1)N1CCCC1=O` [Compound 125, (R)-1-(1-(4-(1-(1H-pyrazol-4-yl)piperidin-4-yl)phenyl)ethyl)pyrrolidin-2-one], in series [1], the solubility at 2 h was greater than 600 µM.
On to `O=C1CCCN1Cc1ccc(C2CCN(c3cn[nH]c3)CC2)c(F)c1` [Compound 118, 1-(4-(1-(1H-Pyrazol-4-yl)piperidin-4-yl)-3-fluorobenzyl)pyrrolidin-2-one], for which the solubility at 2 h in series [1] turned out to be 443 µM (≈ 152 µg/mL).
In the case of `c1cc(C2CCN(c3cn[nH]c3)CC2)ccc1CN1CCOCC1` [Compound 121, 4-(4-(1-(1H-Pyrazol-4-yl)piperidin-4-yl)benzyl)morpholine], in series [1], the solubility at 2 h was 122 µM (≈ 39.9 µg/mL).
As for `C[C@@H](c1ccc(C2CCN(c3cn[nH]c3)CC2)cc1)N1CCCC1=O` [Compound 126, (S)-1-(1-(4-(1-(1H-pyrazol-4-yl)piperidin-4-yl)phenyl)ethyl)pyrrolidin-2-one], the solubility at 2 h in series [1] is greater than 600 µM.
In the case of `CS(=O)(=O)Nc1ccc(C2CCN(c3cn[nH]c3)CC2)cc1` [Compound 113, N-(4-(1-(1H-pyrazol-4-yl)piperidin-4-yl)phenyl)methanesulfonamide], the “RLM % inh. @ 500 nM” value in series [2] is recorded as 14.30%. The inhibition at 0.5 µM in series [3] was 67.6%. In series [4], the “HLM % inh. @ 500 nM” value came to 30.5%.
On to `COC(=O)c1cccc(C2CCN(c3ccn[nH]3)CC2)c1` [Compound 56, Methyl 3-(1-(1H-pyrazol-5-yl)piperidin-4-yl)benzoate], for which the “RLM % inh. @ 500 nM” value in series [2] was 0.00%. In addition, the inhibition at 0.5 µM in series [3] stood at 11.4%. For the same compound, the “HLM % inh. @ 500 nM” value in series [4] stood at 0.00%.

These data come from US12479816B2, “20-HETE formation inhibitors” (UNIVERSITY OF PITTSBURGH—OF THE COMMONWEALTH SYSTEM OF …, priority 2019, dated 2025).
